Literature values as cited in article PMC11084461, “The First Reciprocal Activities of Chiral Peptide Pharmaceuticals: Thymogen and Thymodepressin, as Examples” (International Journal of Molecular Sciences, 2024).
Read-outs that look alike come from different tables or passages of the source.

Columns and labels:
thymocyte regeneration = system: thymocyte regeneration; design: method as in PMID 6971758; details: same conditions for all isomers
leukocytes = system: leukocytes; design: method as in ref 75 = [75]; 75. Vinogradova Y.E. Deigin V.I. Korotkov A.M. Semina O.V. Sements T.N. Poverenny A.M. Use of Thymogen for the treatment of patients with diseases of the blood system. The influence of Thymogen on the; details: patients after polychemotherapy receiving Thymogen
[1] = system: hematopoietic stem cell progenitors; design: method as in ref 82 = [82]; 82. Vladimirskaya E.B. Osipova Y.E. Kaznacheev K.S. Ivanova K.A. Deigin V.I. Rumyantsev A.G. The effect of Thymodepressin on the proliferation of human hematopoietic progenitor cells Hematol. Transfus; details: in vitro in methylcellulose, MTT test; dose range from 1 µg/mL to 10 µg/mL
[2] = system: colony-forming unit (CFU); design: method as in PMID 30927190; details: lethally irradiated mice, i/p on days 1, 2 and 3 after allogeneic bone marrow transplantation
bone marrow cells = system: bone marrow cells; design: method as in PMID 16307056; details: mice irradiated 4 Gy, treated seven days after irradiation, read on day eight
bone marrow = system: bone marrow; design: method as in ref 92 = [92]; 92. Dyadkin V.Y. Shamov B.A. The experimental application of Thymodepressin in patients with psoriasis Dermatology 2003 1 36; details: pre-treatment two days before irradiation; seven days after irradiation, persisted 14 observation days
[3] = system: hematopoietic progenitor cells; design: method as in ref 74 = [74]; 74. Semina O.V. Semenets T.N. Deigin V.I. Korotkov A.M. Vinogradova Y.E. Poverenny A.M. Stimulation with Thymogen (EW), a dipeptide that has immunoprotective properties to restore hematopoiesis in irr; details: mice; for Protective effect on hematopoietic progenitor cells after Cytosar treatment: administered two days before Cytosar injection
autoantibodies = system: autoantibodies; design: method as in ref 97 = [97]; 97. Krasilshchikova M. Leonov V. Zatsepina O. Deigin V. Immunosuppressor studies of Thymodepressin in the experimental autoimmune model Immunology 2009 5 290 294; details: SJL/J mouse
psoriasis vulgaris = system: psoriasis vulgaris; design: method as in PMID 15199399
CFU-C-8 cells = system: CFU-C-8 cells; design: method as in PMID 19145362
mature T-lymphocyte = system: mature T-lymphocyte; design: method as in PMID 12360601; details: indicated by changed CD25+ and CD69+ markers
[4] = experimental group (29 patients)

## L-Glu-L-Trp [Thymogen]
Thymocyte regeneration
  Influence on thymocyte regeneration (restoring E-rosette-forming units): stimulating activity
leukocytes
  Average leukocyte count compared to the group receiving protocol treatment: doubled

## D-Glu(D-Trp) [Thymodepressin]
Thymocyte regeneration
  Influence on thymocyte regeneration (restoring E-rosette-forming units): effective inhibitors of thymocyte regeneration
[1]
  Cloning efficiency of hematopoietic stem cell progenitors: suppresses the cloning efficiency of all hematopoietic stem cell progenitors
[2]
  Yield of colonies compared to the control animals: approximately four times
Bone marrow cells
  Rate of dividing bone marrow cells: below that of the intact control
Bone marrow
  Bone marrow cell number (cellularity): restored to an intact level
[3]
  Protective effect on hematopoietic progenitor cells after Cytosar treatment: completely protected
[3]; two days before Cytosar, after 3 h and up to seven days
  Number of CFU-S-8 colonies: restored the number of CFU-S-8 colonies to an intact level
autoantibodies
  Dose of most effective immunosuppression, therapeutic regimen: 0.7 mg/kg
autoantibodies; doses 0.14, 0.35 and 0.7 mg/kg
  Immunosuppressive effect, prophylactic regimen: pronounced immunosuppressive effect
  Immunosuppressive effect, therapeutic regimen: distinct immunosuppressive effect
autoantibodies; prophylactic regimen
  Persistence of effect after the end of the drug administration: over ten weeks
Psoriasis vulgaris; [4]
  Clinical improvement: 13 patients
  Significant clinical improvement: 16 patients
Psoriasis vulgaris; experimental group (29 patients), 1st day of treatment, i/m 1 mL 0.1% solution
  PASI (Psoriasis Area and Severity Index): 26.8
Psoriasis vulgaris; experimental group, 21st day, three i/m courses of 1 mL 0.1% solution daily for five days
  PASI (Psoriasis Area and Severity Index): 8.6
Psoriasis vulgaris; experimental group, day 1 to day 21
  Decrease in the PASI index: 70%
CFU-C-8 cells; experimental animal, after administration of the peptide
  Number of leucocytes in the blood: dose-dependent transient decrease
CFU-C-8 cells; in vitro and in vivo
  Number of committed CFU-C-8 cells in the S-phase of the cell cycle: reducing the number of committed CFU-C-8 cells in the S-phase
Mature T-lymphocyte
  Mature T-lymphocyte activation: suppression of mature T-lymphocyte activation

## D-Glu-D-Trp
Thymocyte regeneration
  Influence on thymocyte regeneration (restoring E-rosette-forming units): effective inhibitors of thymocyte regeneration

## Cyclosporine [reference compound]
[3]
  Protective effect on hematopoietic progenitor cells after Cytosar treatment: had no effect
autoantibodies
  Effective dose, prophylactic regimen: 20 to 50 mg/kg
autoantibodies; prophylactic regimen
  Dose at which statistically significant effect was achieved: 50 mg/kg

## L-Glu–(L-Trp)-OH
Thymocyte regeneration
  Influence on thymocyte regeneration (restoring E-rosette-forming units): stimulating activity
